Source: the NIST ThermoML archive (doi:10.1021/acs.jced.7b00106)
Several values for one entry are separate records, joined by “and”; a condition that tells them apart may be missing. Equal entries are not always repeated. ± gives the expanded uncertainty stated by the source.

Conditions: Hot wire method

FC(F)(F)/C=C/Cl [(E)-1-chloro-3,3,3-trifluoroprop-1-ene]
thermal conductivity (403.42 K, 5979 kPa, Liquid): 0.05892 ± 0.0013 W/m/K | thermal conductivity (403.43 K, 18618 kPa, Liquid): 0.06817 ± 0.00095 W/m/K | thermal conductivity (403.44 K, 18637 kPa, Liquid): 0.06808 ± 0.0018 W/m/K | thermal conductivity (403.48 K, 4696 kPa, Liquid): 0.0577 ± 0.00073 W/m/K | thermal conductivity (403.48 K, 4700 kPa, Liquid): 0.05772 ± 0.00068 W/m/K | thermal conductivity (403.49 K, 9102 kPa, Liquid): 0.06156 ± 0.0028 W/m/K | thermal conductivity (403.49 K, 9108 kPa, Liquid): 0.06159 ± 0.0025 W/m/K | thermal conductivity (403.53 K, 3569 kPa, Liquid): 0.05653 ± 0.0008 W/m/K | thermal conductivity (403.54 K, 3575 kPa, Liquid): 0.05665 ± 0.0026 W/m/K | thermal conductivity (403.54 K, 15778 kPa, Liquid): 0.06628 ± 0.00074 W/m/K | thermal conductivity (403.54 K, 15782 kPa, Liquid): 0.06631 ± 0.0011 W/m/K | thermal conductivity (403.58 K, 7083 kPa, Liquid): 0.05991 ± 0.001 W/m/K | thermal conductivity (403.58 K, 7093 kPa, Liquid): 0.05996 ± 0.00074 W/m/K | thermal conductivity (403.59 K, 2636 kPa, Liquid): 0.0556 ± 0.00085 W/m/K | thermal conductivity (403.6 K, 2641 kPa, Liquid): 0.05565 ± 0.0018 W/m/K | thermal conductivity (420.8 K, 2579 kPa, Fluid (supercritical or subcritical phases)): 0.02548 ± 0.0011 W/m/K | thermal conductivity (420.81 K, 2579 kPa, Fluid (supercritical or subcritical phases)): 0.02537 ± 0.012 W/m/K | thermal conductivity (420.9 K, 2520 kPa, Fluid (supercritical or subcritical phases)): 0.02499 ± 0.0018 W/m/K and 0.02461 ± 0.011 W/m/K | thermal conductivity (420.92 K, 2579 kPa, Fluid (supercritical or subcritical phases)): 0.02548 ± 0.01 W/m/K and 0.02551 ± 0.0099 W/m/K | thermal conductivity (421 K, 2520 kPa, Fluid (supercritical or subcritical phases)): 0.02479 ± 0.005 W/m/K | thermal conductivity (421.01 K, 2519 kPa, Fluid (supercritical or subcritical phases)): 0.0248 ± 0.005 W/m/K | thermal conductivity (421.03 K, 2579 kPa, Fluid (supercritical or subcritical phases)): 0.02568 ± 0.0091 W/m/K | thermal conductivity (421.04 K, 2579 kPa, Fluid (supercritical or subcritical phases)): 0.02548 ± 0.0082 W/m/K | thermal conductivity (421.11 K, 2519 kPa, Fluid (supercritical or subcritical phases)): 0.02483 ± 0.012 W/m/K | thermal conductivity (421.11 K, 2520 kPa, Fluid (supercritical or subcritical phases)): 0.02479 ± 0.012 W/m/K | thermal conductivity (421.15 K, 2469 kPa, Fluid (supercritical or subcritical phases)): 0.02425 ± 0.0067 W/m/K and 0.02441 ± 0.0042 W/m/K | thermal conductivity (421.16 K, 2579 kPa, Fluid (supercritical or subcritical phases)): 0.02588 ± 0.013 W/m/K | thermal conductivity (421.16 K, 2580 kPa, Fluid (supercritical or subcritical phases)): 0.02588 ± 0.012 W/m/K | thermal conductivity (421.21 K, 2403 kPa, Fluid (supercritical or subcritical phases)): 0.02382 ± 0.0043 W/m/K | thermal conductivity (421.24 K, 2520 kPa, Fluid (supercritical or subcritical phases)): 0.02505 ± 0.0044 W/m/K | thermal conductivity (421.25 K, 2307 kPa, Fluid (supercritical or subcritical phases)): 0.02316 ± 0.0027 W/m/K and 0.02317 ± 0.0027 W/m/K | thermal conductivity (421.25 K, 2520 kPa, Fluid (supercritical or subcritical phases)): 0.02484 ± 0.0096 W/m/K | thermal conductivity (421.29 K, 2203 kPa, Fluid (supercritical or subcritical phases)): 0.02266 ± 0.0062 W/m/K | thermal conductivity (421.29 K, 2204 kPa, Fluid (supercritical or subcritical phases)): 0.02272 ± 0.0035 W/m/K | thermal conductivity (421.29 K, 2468 kPa, Fluid (supercritical or subcritical phases)): 0.02448 ± 0.012 W/m/K | thermal conductivity (421.3 K, 2469 kPa, Fluid (supercritical or subcritical phases)): 0.02444 W/m/K | thermal conductivity (421.32 K, 2099 kPa, Fluid (supercritical or subcritical phases)): 0.02221 ± 0.0044 W/m/K | thermal conductivity (421.33 K, 2099 kPa, Fluid (supercritical or subcritical phases)): 0.02225 ± 0.004 W/m/K | thermal conductivity (421.35 K, 2403 kPa, Fluid (supercritical or subcritical phases)): 0.02395 ± 0.0049 W/m/K and 0.02391 ± 0.0048 W/m/K | thermal conductivity (421.36 K, 1997 kPa, Fluid (supercritical or subcritical phases)): 0.02198 ± 0.0083 W/m/K and 0.02199 ± 0.0082 W/m/K | thermal conductivity (421.39 K, 2307 kPa, Fluid (supercritical or subcritical phases)): 0.02322 ± 0.0055 W/m/K | thermal conductivity (421.39 K, 2519 kPa, Fluid (supercritical or subcritical phases)): 0.02527 W/m/K | thermal conductivity (421.39 K, 2520 kPa, Fluid (supercritical or subcritical phases)): 0.02527 W/m/K | thermal conductivity (421.4 K, 1861 kPa, Fluid (supercritical or subcritical phases)): 0.0216 ± 0.0048 W/m/K | thermal conductivity (421.4 K, 1862 kPa, Fluid (supercritical or subcritical phases)): 0.02165 ± 0.0044 W/m/K | thermal conductivity (421.44 K, 1724 kPa, Fluid (supercritical or subcritical phases)): 0.02132 ± 0.002 W/m/K | thermal conductivity (421.44 K, 2203 kPa, Fluid (supercritical or subcritical phases)): 0.02269 ± 0.0039 W/m/K | thermal conductivity (421.44 K, 2469 kPa, Fluid (supercritical or subcritical phases)): 0.02473 ± 0.0088 W/m/K and 0.02459 ± 0.0083 W/m/K | thermal conductivity (421.45 K, 1723 kPa, Fluid (supercritical or subcritical phases)): 0.02131 ± 0.0021 W/m/K | thermal conductivity (421.45 K, 2204 kPa, Fluid (supercritical or subcritical phases)): 0.02274 ± 0.0038 W/m/K | thermal conductivity (421.48 K, 2100 kPa, Fluid (supercritical or subcritical phases)): 0.02256 ± 0.0052 W/m/K and 0.02228 ± 0.0058 W/m/K | thermal conductivity (421.51 K, 2403 kPa, Fluid (supercritical or subcritical phases)): 0.02407 ± 0.0069 W/m/K and 0.02398 ± 0.0066 W/m/K | thermal conductivity (421.52 K, 1998 kPa, Fluid (supercritical or subcritical phases)): 0.02205 ± 0.0031 W/m/K and 0.02199 ± 0.0032 W/m/K | thermal conductivity (421.53 K, 1561 kPa, Fluid (supercritical or subcritical phases)): 0.02097 ± 0.0043 W/m/K | thermal conductivity (421.54 K, 1562 kPa, Fluid (supercritical or subcritical phases)): 0.02106 ± 0.0038 W/m/K | thermal conductivity (421.56 K, 2307 kPa, Fluid (supercritical or subcritical phases)): 0.02344 ± 0.0063 W/m/K and 0.02334 ± 0.0064 W/m/K | thermal conductivity (421.57 K, 1862 kPa, Fluid (supercritical or subcritical phases)): 0.02171 ± 0.0022 W/m/K | thermal conductivity (421.57 K, 1863 kPa, Fluid (supercritical or subcritical phases)): 0.02167 ± 0.0023 W/m/K | thermal conductivity (421.58 K, 1402 kPa, Fluid (supercritical or subcritical phases)): 0.02076 ± 0.0031 W/m/K | thermal conductivity (421.59 K, 1402 kPa, Fluid (supercritical or subcritical phases)): 0.02091 ± 0.0021 W/m/K | thermal conductivity (421.61 K, 2204 kPa, Fluid (supercritical or subcritical phases)): 0.02283 ± 0.0044 W/m/K | thermal conductivity (421.62 K, 1724 kPa, Fluid (supercritical or subcritical phases)): 0.02136 ± 0.0017 W/m/K | thermal conductivity (421.62 K, 2203 kPa, Fluid (supercritical or subcritical phases)): 0.02292 ± 0.0051 W/m/K | thermal conductivity (421.62 K, 2616 kPa, Liquid): 0.0497 ± 0.007 W/m/K | thermal conductivity (421.63 K, 1724 kPa, Fluid (supercritical or subcritical phases)): 0.0214 ± 0.0018 W/m/K | thermal conductivity (421.63 K, 2616 kPa, Liquid): 0.04969 ± 0.0076 W/m/K | thermal conductivity (421.64 K, 1220 kPa, Fluid (supercritical or subcritical phases)): 0.02082 ± 0.0018 W/m/K | thermal conductivity (421.64 K, 1221 kPa, Fluid (supercritical or subcritical phases)): 0.02077 ± 0.0041 W/m/K | thermal conductivity (421.66 K, 2099 kPa, Fluid (supercritical or subcritical phases)): 0.02245 ± 0.0047 W/m/K | thermal conductivity (421.66 K, 2100 kPa, Fluid (supercritical or subcritical phases)): 0.02244 ± 0.0047 W/m/K | thermal conductivity (421.67 K, 2403 kPa, Fluid (supercritical or subcritical phases)): 0.02364 ± 0.0028 W/m/K | thermal conductivity (421.68 K, 1031 kPa, Fluid (supercritical or subcritical phases)): 0.02073 ± 0.00097 W/m/K
